Source: article PMC10746543, “Design principles for cyclin K molecular glue degraders” (Nature Chemical Biology, 2023)
“And” between values parts separate entries of the source, which are not always exact repeats. Equal values may be shown once. Read-outs that look alike come from different tables or passages of the source.

How the values were obtained:
[1] = tested on: HEK293T cells; assay: Drug sensitivity assay (CellTiter-Glo viability) with or without MLN4924 pretreatment; format: cell-based, human; details: for EC50: Homo sapiens, HEK-293T; for Toxicity rescue: MLN4924-mediated cytotoxicity rescue, 10 µM used where n.d.
Summary of the method: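 Luminescent ATP read-out (CellTiter-Glo) after 3 days of drug exposure, normalised to DMSO controls. Cells were HEK293T–Cas9, pretreated with 100 nM MLN4924 or DMSO for 2 h before drug dispensing.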

[2] = tested on: cyclin K–eGFP degradation reporter; assay: Cyclin K reporter stability analysis (dual-color cyclin K–eGFP reporter); format: cell-based, human
Summary of the method: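 Cells (HEK293T–Cas9, reporter-expressing) at 1 × 10^6 ml^−1; 5 h compound or DMSO; flow cytometry; gMFI eGFP ÷ mCherry on round mCherry-positive events; normalized to 3 DMSO controls.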

[3] = molecular target: T1, CDK12–cyclin K and DDB1 (Homo sapiens, UniProt Q16531+Q9NYV4, K965R); assay: TR-FRET ternary complex formation assay (compound titration); format: binding; details: for TR-FRET signal at compound concentration: replicate titrations
T1 construct: His6–CDK12 (a.a. 713–1,052); full-length or beta-propeller B domain deletion (ΔBPB: a.a. 396–705 deleted) constructs of His6–DDB1ΔBPB, StrepII–Avi–DDB1, or His6–Spy–DDB1; made in house; host or cells: Trichoplusia ni High Five insect cells (baculovirus)
T1 sequence (Q9NYV4 713-1052 K965R): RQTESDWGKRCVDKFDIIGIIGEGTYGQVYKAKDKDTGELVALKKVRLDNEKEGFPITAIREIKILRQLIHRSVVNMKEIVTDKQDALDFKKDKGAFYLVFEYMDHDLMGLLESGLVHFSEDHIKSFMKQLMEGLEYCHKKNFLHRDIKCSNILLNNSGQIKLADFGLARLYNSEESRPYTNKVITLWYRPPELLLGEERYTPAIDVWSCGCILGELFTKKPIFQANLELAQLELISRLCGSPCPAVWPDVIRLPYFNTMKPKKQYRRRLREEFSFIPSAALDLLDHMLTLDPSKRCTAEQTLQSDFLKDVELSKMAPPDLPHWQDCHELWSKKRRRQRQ
T1 sequence (O75909 1-267 partner): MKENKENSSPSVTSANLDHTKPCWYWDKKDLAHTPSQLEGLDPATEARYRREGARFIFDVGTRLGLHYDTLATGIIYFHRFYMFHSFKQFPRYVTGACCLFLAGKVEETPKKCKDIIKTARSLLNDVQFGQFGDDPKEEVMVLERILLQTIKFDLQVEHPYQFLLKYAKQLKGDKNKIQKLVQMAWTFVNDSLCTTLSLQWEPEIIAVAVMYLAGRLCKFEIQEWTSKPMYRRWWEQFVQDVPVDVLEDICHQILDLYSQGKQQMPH
T1 sequence (Q16531 whole entry): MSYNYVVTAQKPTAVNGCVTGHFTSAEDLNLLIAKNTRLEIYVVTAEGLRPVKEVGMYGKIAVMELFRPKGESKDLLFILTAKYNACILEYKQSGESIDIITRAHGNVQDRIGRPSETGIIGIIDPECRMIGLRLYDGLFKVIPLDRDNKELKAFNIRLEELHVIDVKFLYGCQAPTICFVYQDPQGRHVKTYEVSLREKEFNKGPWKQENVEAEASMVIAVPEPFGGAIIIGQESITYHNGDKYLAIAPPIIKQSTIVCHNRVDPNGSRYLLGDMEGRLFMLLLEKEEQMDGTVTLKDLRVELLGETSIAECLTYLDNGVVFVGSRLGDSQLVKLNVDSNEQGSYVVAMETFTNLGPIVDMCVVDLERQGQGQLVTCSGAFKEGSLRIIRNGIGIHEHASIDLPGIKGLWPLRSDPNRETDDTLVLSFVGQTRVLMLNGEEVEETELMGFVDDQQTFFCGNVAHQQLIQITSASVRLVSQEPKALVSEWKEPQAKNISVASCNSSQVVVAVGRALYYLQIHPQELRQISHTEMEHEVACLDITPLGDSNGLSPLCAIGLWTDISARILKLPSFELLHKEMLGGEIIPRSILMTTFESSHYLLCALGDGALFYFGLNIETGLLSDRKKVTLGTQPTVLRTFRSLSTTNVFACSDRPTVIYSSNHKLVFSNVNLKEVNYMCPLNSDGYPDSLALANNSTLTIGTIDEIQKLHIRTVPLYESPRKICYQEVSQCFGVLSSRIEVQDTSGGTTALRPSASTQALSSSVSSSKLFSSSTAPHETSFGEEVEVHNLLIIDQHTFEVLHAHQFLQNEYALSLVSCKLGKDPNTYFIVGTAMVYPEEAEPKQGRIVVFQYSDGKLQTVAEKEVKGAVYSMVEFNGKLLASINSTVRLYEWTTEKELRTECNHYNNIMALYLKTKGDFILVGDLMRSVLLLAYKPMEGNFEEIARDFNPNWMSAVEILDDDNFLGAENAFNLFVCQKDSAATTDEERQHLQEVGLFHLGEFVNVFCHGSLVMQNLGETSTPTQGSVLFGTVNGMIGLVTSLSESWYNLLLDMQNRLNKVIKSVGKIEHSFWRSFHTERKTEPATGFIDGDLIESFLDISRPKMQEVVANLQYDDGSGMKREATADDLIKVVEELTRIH
Summary of the method: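 TR-FRET ratio 520/490 nm; 70 μs delay before read to suppress background.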

[4] = Supplementary Table 2, HEK293T viability, 72 h, compound alone, read-out: Cellular assays EC50
[5] = compound concentration 0.468 nM
[6] = compound concentration 7.92001 nM
[7] = compound concentration 15.84 nM
[8] = compound concentration 30.96 nM
[9] = compound concentration 62.6401 nM
[10] = compound concentration 125.28 nM
[11] = compound concentration 244.8 nM
[12] = compound concentration 993.601 nM
[13] = compound concentration 2001.6 nM

Structure (SMILES): CC[C@H](CO)Nc1nc(NCc2ccc3ccccc3c2)c2ncn(C(C)C)c2n1 [DS08]
- EC50 ([1]; Supplementary Fig. 5, HEK293T, CellTiter Glo, 72h, read-out: Viability EC50, no MLN4924): 3380 nM
- EC50 [1, 4]: 3500 nM
- Toxicity rescue ([1]; Supplementary Table 2): 186%
- DC50 ([2]; source data sheet correlations, read-out: DC50): 724 nM
- TR-FRET signal [3, 5]: 0.2538 and 0.248 and 0.2145 and 0.2136
- TR-FRET signal, individual replicate [3, 5]: 0.2538 and 0.248 and 0.2145 and 0.2136
- TR-FRET signal at compound concentration [3, 5]: 0.2538 and 0.248 and 0.2145 and 0.2136
- TR-FRET signal ([3]; compound concentration 2.16 nM): 0.2768 and 0.2874 and 0.2634 and 0.2686
- TR-FRET signal, individual replicate ([3]; compound concentration 2.16 nM): 0.2768 and 0.2874 and 0.2634 and 0.2686
- TR-FRET signal at compound concentration ([3]; compound concentration 2.16 nM): 0.2768 and 0.2874 and 0.2634 and 0.2686
- TR-FRET signal ([3]; compound concentration 3.6 nM): 0.3502 and 0.3555 and 0.3511 and 0.3733
- TR-FRET signal, individual replicate ([3]; compound concentration 3.6 nM): 0.3502 and 0.3555 and 0.3511 and 0.3733
- TR-FRET signal at compound concentration ([3]; compound concentration 3.6 nM): 0.3502 and 0.3555 and 0.3511 and 0.3733
- TR-FRET signal [3, 6]: 0.4902 and 0.4911 and 0.5114 and 0.5651
- TR-FRET signal, individual replicate [3, 6]: 0.4902 and 0.4911 and 0.5114 and 0.5651
- TR-FRET signal at compound concentration [3, 6]: 0.4902 and 0.4911 and 0.5114 and 0.5651
- TR-FRET signal [3, 7]: 0.7316 and 0.7507 and 0.8127 and 0.857
- TR-FRET signal, individual replicate [3, 7]: 0.7316 and 0.7507 and 0.8127 and 0.857
- TR-FRET signal at compound concentration [3, 7]: 0.7316 and 0.7507 and 0.8127 and 0.857
- TR-FRET signal [3, 8]: 1.126 and 1.191 and 1.297 and 1.247
- TR-FRET signal, individual replicate [3, 8]: 1.126 and 1.191 and 1.297 and 1.247
- TR-FRET signal at compound concentration [3, 8]: 1.126 and 1.191 and 1.297 and 1.247
- TR-FRET signal [3, 9]: 1.6143 and 1.736 and 1.841 and 1.867
- TR-FRET signal, individual replicate [3, 9]: 1.6143 and 1.736 and 1.841 and 1.867
- TR-FRET signal at compound concentration [3, 9]: 1.6143 and 1.736 and 1.841 and 1.867
- TR-FRET signal [3, 10]: 2.093 and 2.298 and 2.427 and 2.467
- TR-FRET signal, individual replicate [3, 10]: 2.093 and 2.298 and 2.427 and 2.467
- TR-FRET signal at compound concentration [3, 10]: 2.093 and 2.298 and 2.427 and 2.467
- TR-FRET signal [3, 11]: 2.523 and 2.773 and 2.7872 and 2.833
- TR-FRET signal, individual replicate [3, 11]: 2.523 and 2.773 and 2.7872 and 2.833
- TR-FRET signal at compound concentration [3, 11]: 2.523 and 2.773 and 2.7872 and 2.833
- TR-FRET signal [3, 12]: 2.957 and 3.301 and 3.125 and 3.145
- TR-FRET signal, individual replicate [3, 12]: 2.957 and 3.301 and 3.125 and 3.145
- TR-FRET signal at compound concentration [3, 12]: 2.957 and 3.301 and 3.125 and 3.145
- TR-FRET signal [3, 13]: 3.117 and 3.31 and 3.185 and 3.127
- TR-FRET signal, individual replicate [3, 13]: 3.117 and 3.31 and 3.185 and 3.127
- TR-FRET signal at compound concentration [3, 13]: 3.117 and 3.31 and 3.185 and 3.127
- EC50 ([3]; in vitro complex formation, 50 nM CDK12–cyclin K, 100 nM DDB1, text and figures, read-out: TR-FRET EC50): 60 nM
- EC50 ([3]; sheet MOESM7, read-out: log TR-FRET EC50 (converted)): 60.3 nM
- EC50 ([3]; source data sheet correlations, read-out: TR-FRET EC50): 60.3 nM

Structure (SMILES): CCCCN(CCCC)CCCNc1nc(N[C@H](CC)CO)nc2c1ncn2C(C)C [DS36]
- EC50 [1, 4]: > 10000 nM
- Toxicity rescue ([1]; Supplementary Table 2): 0%
- DC50 ([2]; Supplementary Table 2, HEK293T cycK-eGFP reporter, 5 h, read-out: Cellular assays DC50): > 10000 nM
- TR-FRET signal, individual replicate ([3]; compound concentration 4.68 nM): 0.2097 and 0.2275
- TR-FRET signal, individual replicate ([3]; compound concentration 21.6 nM): 0.2087 and 0.2297
- TR-FRET signal, individual replicate ([3]; compound concentration 36 nM): 0.2089 and 0.2353
- TR-FRET signal, individual replicate ([3]; compound concentration 79.2001 nM): 0.2163 and 0.2368
- TR-FRET signal, individual replicate ([3]; compound concentration 158.4 nM): 0.2165 and 0.2428
- TR-FRET signal, individual replicate ([3]; compound concentration 309.6 nM): 0.2214 and 0.244
- TR-FRET signal, individual replicate ([3]; compound concentration 626.401 nM): 0.2373 and 0.2728
- TR-FRET signal, individual replicate ([3]; compound concentration 1252.8 nM): 0.2487 and 0.3013
- TR-FRET signal, individual replicate ([3]; compound concentration 2448 nM): 0.2879 and 0.3168
- TR-FRET signal, individual replicate ([3]; compound concentration 9936.01 nM): 0.3262 and 0.358
- TR-FRET signal, individual replicate ([3]; compound concentration 20016 nM): 0.3249 and 0.3501
